The record followed here is patent US20240294570A1, “ENZYMATICALLY FORMING INTRANUCLEAR PEPTIDE ASSEMBLIES FOR SELECTIVELY KILLING INDUCED PLURIPOTENT STEM CELLS” (BRANDEIS UNIVERSITY, priority 2021, published 2024).

Non-standard residues stand in square brackets, D forms with d. Residues, ends and D or L forms follow the SMILES beside them. *: point of attachment. pY = N[C@@H](Cc1ccc(OP(=O)(O)O)cc1)C(=O)O; NBD = O=[N+]([O-])c1ccc(*)c2nonc12; βAla = NCCC(=O)O

The test system of series [1] is HEK293 cells. As to the kind of experiment: Cytotoxicity against HEK293 cells (MTT assay). The format is cell-based. The following applies: 400 μM, 2 h. How it is done:
(§1) Cell Culture: Human induced pluripotent stem cell line A21 was generated from human normal dermal fibroblasts by using the StemRNA™-NM Reprogramming kit (Stemgent, Cat #00-0076). hiPSCs were routinely cultured and passaged on 6-well plates coated with 0.25 μg/cm^2 iMatrix-511 (Recombinant Laminin-511) (ReproCell) with NutriStem XF/FFTM medium (Biological Industries). HS-5 cell line and HEK293 cell line were purchased from American Type Culture Collection (ATCC, USA). HS-5 cells were cultured in Dulbecco's Modified Eagle Medium (DMEM) supplemented with 10% fetal bovine serum (FBS), 100 U/mL penicillin and 100 μg/mL streptomycin. HEK293 cells were cultured in Minimal Essential Medium (MEM) supplemented with 10% fetal bovine serum (FBS), 100 U/mL penicillin and 100 μg/mL streptomycin. All cells were maintained at 37° C. in a humidified atmosphere of 5% CO2.
Cell Viability of Differentiated Cells: Cytotoxicity against HS-5 cells and HEK293 cells was determined by using MTT assay. […] The absorbance of each well at 595 nm was measured by a DTX880 Multimode Detector. The results were calculated as cell viability percentage relative to untreated cells. […]

Series [2] is described as follows: Cell viability of iPSCs (trypan blue). The format is cell-based, human. Conditions: human, human induced pluripotent stem cells (iPSC line A21), 2 hours. As for the experimental part:
as §1
(§2) Cell Viability of iPSC's: iPSCs were plated in 6-well plates and incubated for 24 to 48 hours, then media were replaced with fresh one (2 ml) supplemented with PBS (control) 5 (200 μM, 300 μM, and 400 μM), 7 (400 μM) or 9 (400 μM), and incubated for 2 hours. Media were removed and cells were rinsed with PBS once, fresh normal cultural media were added and incubated for 30 min. All cells were collected and stained with trypan blue, live cells were counted using Cellometer Auto 2000 (Nexcelom Bioscience). Data were obtained by from three independent wells (n=3).

Series [3] has as its system iPSCs. Description: Cell viability of iPSCs (trypan blue). It counts as cell-based, human. The following applies: 400 μM, 2 h. How it is done: as §1, §2
In series [4] the test system is iPS-derived HPCs. As to the kind of experiment: Cell viability of iPS-derived HPCs (trypan blue). The format is cell-based, human. The following applies: 400 μM, 2 h. As for the experimental part:
(§3) Differentiation of Human iPSC to iPS-derived Hematopoietic Progenitor Cells (HPC's): iPSCs were differentiated into hematopoietic progenitor cells (HPCs) by using a 3D-bioreactor platform^1. HPCs released from iPSC-spheroids after 9-10 days' differentiation were collected and characterized. Hematopoietic lineage specific marker expression of harvested HPCs were analyzed by flow cytometry. About 97.6% of these HPCs were CD31+CD43+ double positive, but only about 13% are OCT4+, indicative of commitment to hematopoietic lineage. These iPS-derived HPCs were used for 5 (400 μM, 2 hr) cytotoxicity assay.
(§4) Cell Viability of iPS-derived HPC's: iPS-derived HPCs were plated in 12-well plates and incubated overnight, then media were replaced with fresh one (2 ml) supplemented with PBS (control) 5 (400 μM) incubated for 2 hours. All cells were collected and stained with trypan blue, live cells were counted using Cellometer Auto 2000 (Nexcelom Bioscience). Data were obtained by from three independent wells (n=3).

The nature of series [5]: Cell viability of iPS-derived HPCs (trypan blue). It counts as cell-based, human. Conditions: human, iPS-derived hematopoietic progenitor cells (HPCs), read-out: viability of the HPC cells. How it is done: as §3, §4

As for `CC(C)C[C@H](NC(=O)CCNc1ccc([N+](=O)[O-])c2nonc12)C(=O)N[C@@H](CC(C)C)C(=O)N[C@@H](CC(C)C)C(=O)N[C@@H](CC(C)C)C(=O)N[C@@H](Cc1ccc(OP(=O)(O)O)cc1)C(=O)O` [compound 5, NBD-βA-LLLLpY] ({NBD-βAla}-LLLL[pY]-OH), the “cytotoxicity towards HEK293 cells” value in series [1] is “innocuous”. Further, the viability at 2 h, 200 µM in series [2] (200 μM) was 31.1 ± 3.2%. For the same compound, the viability at 2 h, 300 µM in series [2] (300 μM) is 18.5 ± 1.5%. Further, the viability at 2 h, 400 µM was 6.96 ± 1.71% in series [2] (400 μM) and 96.8% in series [5]. Besides, in series [3], the “cell death of iPSCs (FIG. 8A)” value was 93%. In addition, in series [4], the “cell survival of HPCs (FIG. 8B)” value was 97%.

As usually defined, the viability is a read-out of living cells in per cent, often relative to untreated cells.
